The results in this text go back to ChEMBL document CHEMBL1153858, “Application of phosphonyl carbanions to highly regioselective synthesis of some diazaphospholes and pyrazolinyl phosphonates” (2009).

Holding throughout (type): functional
Assay [1] concerns Agrobacterium tumefaciens. Description: Antimicrobial activity against Bacillus tumefaciens assessed as activity index.
Assay [2] concerns Agrobacterium tumefaciens. Kind of assay: Antimicrobial activity against Bacillus tumefaciens.
Assay [3] concerns Aspergillus niger. Kind of assay: Antimicrobial activity against Aspergillus niger.
Assay [4] has as its system Aspergillus niger. Description: Antimicrobial activity against Aspergillus niger assessed as activity index.
The test system of assay [5] is Aspergillus flavus. Description: Antimicrobial activity against Aspergillus flavus assessed as activity index.
Assay [6] deals with Klebsiella pneumoniae. Kind of assay: Antimicrobial activity against Klebsiella pneumoniae assessed as activity index.
Assay [7] deals with Klebsiella pneumoniae. Description: Antimicrobial activity against Klebsiella pneumoniae.
Assay [8] deals with Penicillium chrysogenum. Kind of assay: Antimicrobial activity against Penicillium chrysogenum.
Assay [9] concerns Penicillium chrysogenum. Kind of assay: Antimicrobial activity against Penicillium chrysogenum assessed as activity index.
Assay [10] has as its system Aspergillus flavus. Kind of assay: Antimicrobial activity against Aspergillus flavus.
The test system of assay [11] is Staphylococcus aureus. Kind of assay: Antimicrobial activity against Staphylococcus aureus.
Assay [12] deals with Staphylococcus aureus. Description: Antimicrobial activity against Staphylococcus aureus assessed as activity index.

Regarding `CCOP1(=O)C(C(=O)OC)=NN(CC)C12C(=O)c1ccccc1C2=O` (stereo unspecified), the Activity is on record as 0.9 in assay [1]; 1.18 in assay [4]; 1.12 in assay [5]; 1.04 in [6]; 1.31 in assay [9]; 0.85 in assay [12]. Also, the “Diameter of inhibition zone” value amounted to 12.2 mm in [2]; 8.4 mm in assay [3]; 10.3 mm in assay [7]; 7.9 mm in assay [8]; 9 mm in assay [10]; 9 mm in assay [11].

Turning to `CCOP1(=O)C(C#N)=NN(CC)C12C(=O)c1ccccc1C2=O` (stereo unspecified), the Activity in assay [1] was found to be 0.89; in assay [4], 1.14; in assay [5], 1.15; in assay [6], 1.16; in assay [9] it was 1; in assay [12], 0.92. Besides, the “Diameter of inhibition zone” value amounted to 10 mm in assay [2]; 9 mm in assay [3]; 12 mm in [7]; 8 mm in assay [8]; 11.3 mm in [10]; 10 mm in assay [11].

With `CCOC(=O)C1=NN(CC)C2(C(=O)c3ccccc3C2=O)P1(=O)OCC` (stereo unspecified), the Activity in assay [1] came out at 0.78; in assay [4] it was 1.23; in [5] it was 1.35; in assay [6], 0.8; in assay [9], 1.42; in [12] it was 0.88. In addition, the “Diameter of inhibition zone” value in assay [2] stood at 11 mm; in assay [3] it was 7.4 mm; in [7], 11.3 mm; in assay [8] it was 7.8 mm; in [10], 9.6 mm; in assay [11], 8.5 mm.

As to `CCn1nc(SC)oc2c3ccccc3c(=O)c1=2`, the Activity in assay [1] is recorded as 0.55; in [4], 1.31; in assay [5], 0.41; in assay [6], 0.32; in assay [9], 0.54; in assay [12], 0.26. For the same compound, the “Diameter of inhibition zone” value in [2] is listed as 5.6 mm; in assay [3], 4.9 mm; in assay [7], 5.1 mm; in assay [8], 5.6 mm; in [10], 6.2 mm; in [11], 5.9 mm.

Turning to `CCOP(=O)(OCC)C1=NN(CC)C2(C1=O)C(=O)c1ccccc1C2=O`, the Activity in assay [1] was 0.57; in assay [4], 0.73; in assay [5] it was 0.88; in assay [6], 0.63; in assay [9] it was 1.06; in [12], 0.83. In addition, the “Diameter of inhibition zone” value in assay [2] was 7.6 mm; in assay [3], 6.1 mm; in assay [7], 8.2 mm; in [8], 5.9 mm; in [10] it was 7.4 mm; in assay [11] it was 7.6 mm.

In the case of `CCOP(=O)(OCC)C1=NN(CC)C2(C1)C(=O)c1ccccc1C2=O`, the Activity in assay [1] was found to be 0.84; in assay [4] it was 0.66; in [5] it was 0.62; in assay [6] it was 1; in assay [9], 0.71; in assay [12], 0.61. For the same compound, the “Diameter of inhibition zone” value stood at 9.8 mm in assay [2]; 4.3 mm in [3]; 7.6 mm in assay [7]; 9 mm in [8]; 5 mm in assay [10]; 8 mm in assay [11].

With `CCOP1(=O)C(SC)=NN(CC)C12C(=O)c1ccccc1C2=O` (stereo unspecified), the Activity was determined as 0.92 in assay [1]; 1.14 in assay [4]; 1.36 in assay [5]; 0.81 in assay [6]; 1.32 in [9]; 1.16 in assay [12]. The “Diameter of inhibition zone” value in assay [2] amounted to 12.6 mm; in assay [3], 8 mm; in assay [7], 10.5 mm; in [8] it was 9.2 mm; in assay [10], 9.8 mm; in [11] it was 12.8 mm.

As for `CCOP(=O)(OCC)C1=C(N)C2(N=N1)C(=O)c1ccccc1C2=O`, the Activity is listed as 0.75 in assay [1]; 0.73 in assay [4]; 0.78 in assay [5]; 0.47 in assay [6]; 0.71 in assay [9]; 52 in [12]. The “Diameter of inhibition zone” value in assay [2] worked out at 8.4 mm; in assay [3] it was 5.4 mm; in [7] it was 6 mm; in assay [8] it was 5.2 mm; in assay [10], 6.3 mm; in assay [11], 7.2 mm.
